The values below come from patent publication US20120225949A1, “COMPOSITIONS AND METHODS FOR TREATING BIPOLAR DISORDER” (priority 2009, published 2012).

Data set [1] has as its system Childhood-Onset Bipolar Disorder With FOH. As to the kind of experiment: Ketamine treatment of childhood-onset bipolar disorder with FOH (single-subject case report). Format: in vivo, human. The following applies: 2 intranasal puffs of ketamine. From the text:
Subject is a child referred by their parents for psychiatric care to address their intense and often violent rages.
Subject has had episodic rages that have escalated in frequency and intensity since their adoption at 18 months. They have always experienced extreme separation anxiety but their aggression has shifted from themself toward their parents since starting school. The abuse towards their parents has included hitting, kicking, biting, and propelling objects. Parents came for consultation for fear that Subject will become more dangerous as they age.
Subject is currently on seroquel—225 mg (50 mg time release mornings, 25 mg afternoon, 150 mg time release evenings), lithium 600 mg (300 mg mornings and evenings), and 2 intranasal puffs of ketamine.

The conditions of data set [2]: cited from earlier work.
Data set [3] relates to PCP site of the NMDA receptor. The conditions noted are these: (S)- versus (R)-ketamine; cited from earlier work.
For data set [4] the following is noted: cited from earlier work. This is another data set of the same source.
A short description of data set [5]: Subject's earlier response to sedative/analgesic drugs (medical history). The following applies: child, around adenoid removal.

Molecules are shown by their SMILES.

In the case of `CNC1(c2ccccc2Cl)CCCCC1=O` (stereo not drawn) [ketamine, [(2-2-chlorophenyl)-2-(methylamino)-cyclohexanone]], in data set [1], the coordination entry is reported as “improved coordination”, the coping with transitions result is listed as “able to cope with transitions without the aid of transitional rituals”, the “dependence on transitional objects” value was “decreased to the rare occasion” and the hallucinations entry is “complete remission”. Further, in data set [1], the hoarding behavior result is listed as “ceased”, the motion sickness entry is listed as “no more motion sickness”, the night sweats entry was “no longer complains of night sweats” and the physical well-being entry is “much improvement”. In data set [1], the sleep entry was “improved greatly”; the speech entry was “improved with much greater regularity in coherence, tempo, volume, and clarity”; the thirst on awakening entry is “no longer awakens extremely thirsty”. Further, in data set [1] (except the last few days of the ketamine cycle), the delusions entry is recorded as “subsided”. Besides, in data set [1] (returns on occasion the few days prior to next administration), the aggression entry is listed as “nearly disappeared”. The dreams result in data set [1] (subject's report) was ““good dreams” have replaced their “bad dreams.””. Also, the “overall response after the use of ketamine” value in data set [1] (child, with seroquel 225 mg and lithium 600 mg) was “quite notable changes in body temperature, speech, levels of fear, sleep, attention, aggression, and psychosis/delusions”. For the same molecule, the “dose at which mild adverse effects (dysphoria and/or hallucinations, "ketamine dreams") can occur” value in data set [2] (dose of ketamine) is reported as “greater than 50 mg”. The “dose usually required for mild adverse effects (dysphoria and/or hallucinations)” value in data set [2] (total dose intranasally) is listed as “greater than 100 mg”.
With `CN[C@]1(c2ccccc2Cl)CCCCC1=O` [(S)-ketamine], the “affinity for the PCP site of the NMDA receptor relative to (R)-ketamine” value in data set [3] is given as “about four”. For the same molecule, the induction of drowsiness entry in data set [4] (comparison of enantiomers) was “more strongly than the (R) enantiomer”.
Take `Cc1ncc2n1-c1ccc(Cl)cc1C(c1ccccc1F)=NC2` [Versid]: in data set [5], the “response of subject to drug (medical history)” value is recorded as “extreme hyperactivity instead of relaxation”.
Consider `CN[C@@]1(c2ccccc2Cl)CCCCC1=O` [(R)-ketamine], for which, in data set [4] (in vivo), the hallucinogenic effect result is “hallucinogenic”.
